{
  "source": "patent US20230276804A1",
  "about": "“A PESTICIDALLY ACTIVE MIXTURE COMPRISING PYRAZOLOPYRIDINE ANTHRANILAMIDE COMPOUND, OXIDES OR SALTS THEREOF” (priority 2020, published 2023)",
  "type_in_all_cases": "in vivo",
  "key": {"[1]": {"test_system": "Spodoptera litura", "assay": "Diet incorporation method against Spodoptera litura (Example B)", "conditions": "single compound, 96 h", "procedure": "The diet incorporation method was used, in which semi-synthetic diet was incorporated into the test solution consisting either of the single compound or respective compound combinations, when the temperature was approximately 50° C. in the bioassay containers, then stirred thoroughly for proper mixing and allowed to cool for 30 min. The solidified diet was cut into equal pieces, and then each piece was transferred into one cell of the bio-assay trays. A single starved third instar larva was released into each of these cells of the bio-assay trays and the tray was covered with a lid. The bio-assay trays were kept under laboratory conditions at a temperature of 25° C. and relative humidity of 70%. Observations on dead, moribund and live larvae were recorded 96 h after the release. Percent mortality was calculated by combining dead and moribund larvae and comparing the result with the one of the untreated control. The results are shown for the compound of formula (I-III) in Table B."}, "[2]": {"test_system": "Alternaria solani", "assay": "Preventive glasshouse test against Alternaria solani in tomato (Example G)", "conditions": "single compound", "procedure": "(§1) The single compounds or respective compound combinations were dissolved in 2% dimethyl sulfoxide/acetone and then mixed with water containing emulsifier to a calibrated spray volume of 50 mL. The test solutions were poured into spray bottles for further applications.\nTo test the preventive activity, healthy young tomato plants, raised in the greenhouse, were sprayed with the active compound preparation at the stated application rates inside the spray cabinets using hollow cone nozzles. One day after treatment, the plants were inoculated with a spore suspension containing 0.24×10^6 Alternaria solani inoculum and 2% Malt. The inoculated plants were then kept in a greenhouse chamber at a temperature of 22-24° C. and 90-95% relative humidity for disease expression.\nA visual assessment of the performance of the single compounds or compound combinations was carried out by rating the disease severity (0-100% scale) on treated plants 3, 7, 10 and 15 days after application. Efficacy (% control) of the single compounds and mixtures was calculated by comparing the disease rating in the treatment with the one of the untreated control. The compounds were also assessed for their plant compatibility by recording symptoms like necrosis, chlorosis and stunting. The results have been described for the compound of formula (I-III) in Table G."}, "[3]": {"test_system": "Pyricularia oryzae", "conditions": "single compound, 0.05 ppm, preventive, rice"}, "[4]": {"test_system": "Helicoverpa armigera", "assay": "Diet incorporation method against Helicoverpa armigera (Example A)", "conditions": "single compound, 96 h", "procedure": "The diet incorporation method was used, in which semi-synthetic diet was incorporated into the test solutions consisting either of the single compounds or respective compound combinations, when the temperature was approximately 50° C. in the bio-assay containers, then stirred thoroughly for proper mixing and allowed to cool for 30 min. The solidified diet was cut into equal pieces, and then each piece was transferred into one cell of a bio-assay tray. A single starved third instar larva was released into each of these cells of the bio-assay trays and the tray was covered with a lid. The bio-assay trays were kept under laboratory conditions at a temperature of 25° C. and relative humidity of 70%. Observations on dead, moribund and live larvae were recorded 96 h after the release of the larvae. Percent mortality was calculated by combining dead and moribund larvae and comparing the result to the one of the untreated control. The results are shown for the compound of formula (I-III) in Table A."}, "[5]": {"test_system": "Erysiphe cichoracearum", "assay": "Preventive glasshouse test against Erysiphe cichoracearum in cucumber (Example K)", "conditions": "single compound", "procedure": "The single compounds or the respective compound combinations were dissolved in 2% dimethyl sulfoxide/acetone and then mixed with water containing emulsifier to a calibrated spray volume of 50 mL. The test solutions were poured into spray bottles for further applications.\nTo test the preventive activity of compounds, healthy young cucumber plants, raised in the greenhouse, were sprayed with the active compound preparation at the stated application rates inside the spray cabinets using hollow cone nozzles. One day after treatment, the plants were inoculated with a conidial suspension containing 2×10^5 Erysiphe cichoracearum inoculum. The inoculated plants were then kept in a greenhouse chamber at a temperature of 22-24° C. and 50-60% relative humidity for disease expression.\nA visual assessment of the performance of the compounds and the respective compound combinations was carried out by rating the disease severity (0-100% scale) on treated plants 3, 7, 10 and 15 days after application. Efficacy (% control) of the single compounds or compound combinations was calculated by comparing the disease rating in the treatment with the one of the untreated control. The compounds were also assessed for their plant compatibility by recording symptoms like necrosis, chlorosis and stunting. The results have been described for the compound of formula (I-III) in Table K."}, "[6]": {"test_system": "Phakopsora pachyrhizi", "assay": "Preventive glasshouse test against Phakopsora pachyrhizi in soybean (Example H)", "conditions": "single compound", "procedure": "The single compounds or the respective compound combinations were dissolved in 2% dimethyl sulfoxide/acetone and then mixed with water containing an emulsifier to a calibrated spray volume of 50 ml. The test solutions were poured into spray bottles for further applications.\nTo test the preventive activity of compounds, healthy young Soybean plants, raised in the greenhouse, were sprayed with the active compound preparation at the stated application rates inside the spray cabinets using hollow cone nozzles. One day after treatment, the plants were inoculated with a suspension containing 2×10^5 Phakopsora pachyrhizi conidia. The inoculated plants were then kept in a greenhouse chamber at a temperature of 22-24° C. and 80-90% relative humidity for disease expression.\nA visual assessment of the performance of the single compounds and respective compound combinations was carried out by rating the disease severity (0-100% scale) on treated plants 3, 7, 10 and 15 days after application. Efficacy (% control) of the compounds was calculated by comparing the disease rating in the treatment with the one of the untreated control. The compounds were also assessed for their plant compatibility by recording symptoms like necrosis, chlorosis and stunting. The results have been described for the compound of formula (I-III) in Table H."}, "[7]": {"test_system": "Septoria nodorum", "assay": "Preventive glasshouse test against Parastagonospora nodorum/Septoria nodorum/Stagnospora nodorum in wheat (Example J)", "conditions": "single compound", "procedure": "as §1\nTo test the preventive activity of compounds, healthy young wheat plants, raised in the greenhouse, were sprayed with the active compound preparation at the stated application rates inside the spray cabinets using hollow cone nozzles. One day after treatment, the plants were inoculated with a spore suspension containing 2.8×10^6 Stagnospora nodorum inoculum.\nThe inoculated plants were then kept in a greenhouse chamber at 22-25° C. temperature and 90-100% relative humidity for disease expression.\nA visual assessment of the performance of the single compounds or compound combinations was carried out by rating the disease severity (0-100% scale) on treated plants 3, 7, 10 and 15 days after application. Efficacy (% control) of the single compounds and mixtures was calculated by comparing the disease rating in the treatment with the one of the untreated control. The compounds were also assessed for their plant compatibility by recording symptoms like necrosis, chlorosis and stunting. The results have been described for the compound of formula (I-III) in Table J."}, "[8]": {"conditions": "Spodoptera litura, 100 ppm, read-out: Observed Efficacy (%)"}, "[9]": {"conditions": "Spodoptera litura, 200 ppm, read-out: Observed Efficacy (%)"}, "[10]": {"conditions": "Helicoverpa armigera, 100 ppm, read-out: Observed Efficacy (%)"}},
  "note": "Several values for one entry are separate records, joined by “and”; a condition that tells them apart may be missing. Equal values may be shown once.",
  "data": [
    {"smiles": "CO/C=C(/C(=O)OC)c1ccccc1Oc1cc(Oc2ccccc2C#N)ncn1", "note": "[Azoxystrobin]", "values": [
      {"measurement": "Observed Efficacy (%)", "setting": "[1]; 100 ppm", "result": 0, "unit": "%"},
      {"measurement": "Observed Efficacy (%)", "setting": "[1]; 500 ppm", "result": 0, "unit": "%"},
      {"measurement": "Observed Efficacy (%)", "setting": "[2]; 0.05 ppm", "result": 26, "unit": "%"},
      {"measurement": "Observed Efficacy (%)", "setting": "[2]; 0.1 ppm", "result": 40, "unit": "%"},
      {"measurement": "Observed Efficacy (%)", "setting": "[3]", "result": 30, "unit": "%"},
      {"measurement": "Observed Efficacy (%)", "setting": "[4]; 100 ppm", "result": 0, "unit": "%"},
      {"measurement": "Observed Efficacy (%)", "setting": "[4]; 500 ppm", "result": 0, "unit": "%"},
      {"measurement": "Observed Efficacy (%)", "setting": "[5]; Conc. 0.05 ppm", "result": 26, "unit": "%"},
      {"measurement": "Observed Efficacy (%)", "setting": "[5]; Conc. 0.1 ppm", "result": 43, "unit": "%"}
    ]},
    {"smiles": "N#Cc1c[nH]cc1-c1cccc2c1OC(F)(F)O2", "note": "[Fludioxonil]", "values": [
      {"measurement": "pest or weed control at 100 ppm", "setting": "[1]; [8]", "result": 37.5, "unit": "%"},
      {"measurement": "pest or weed control at 200 ppm", "setting": "[1]; [9]", "result": 25, "unit": "%"},
      {"measurement": "Observed Efficacy (%)", "setting": "[6]; 2.0 ppm", "result": 19, "unit": "%"},
      {"measurement": "Observed Efficacy (%)", "setting": "[6]; 10.0 ppm", "result": 28, "unit": "%"}
    ]},
    {"smiles": "O=C(NCCc1ncc(C(F)(F)F)cc1Cl)c1ccccc1C(F)(F)F", "note": "[Fluopyram]", "values": [
      {"measurement": "Observed Efficacy (%)", "setting": "[7]; 10 ppm", "result": 25, "unit": "%"},
      {"measurement": "pest or weed control at 100 ppm", "setting": "[1]; [8]", "result": 0, "unit": "%"},
      {"measurement": "Observed Efficacy (%)", "setting": "[2]; 10 ppm", "result": 67, "unit": "%"},
      {"measurement": "pest or weed control at 50 ppm", "setting": "[4]; Helicoverpa armigera, 50 ppm, read-out: Observed Efficacy (%)", "result": 0, "unit": "%"}
    ]},
    {"smiles": "Cn1cc(C(=O)Nc2ccccc2-c2cc(F)c(F)c(F)c2)c(C(F)F)n1", "note": "[Fluxapyroxad]", "values": [
      {"measurement": "Observed Efficacy (%)", "setting": "[7]; 0.05 ppm", "result": 12, "unit": "%"},
      {"measurement": "Observed Efficacy (%)", "setting": "[7]; 0.1 ppm", "result": 29, "unit": "%"},
      {"measurement": "Observed Efficacy (%)", "setting": "[1]; 100 ppm", "result": 0, "unit": "%"},
      {"measurement": "Observed Efficacy (%)", "setting": "[1]; 200 ppm", "result": 0, "unit": "%"},
      {"measurement": "Observed Efficacy (%)", "setting": "[1]; 500 ppm", "result": 0, "unit": "%"},
      {"measurement": "Observed Efficacy (%)", "setting": "[2]; 0.05 ppm", "result": 14, "unit": "%"},
      {"measurement": "Observed Efficacy (%)", "setting": "[2]; 0.1 ppm", "result": 26, "unit": "%"},
      {"measurement": "Observed Efficacy (%)", "setting": "[5]; Conc. 0.05 ppm", "result": 29, "unit": "%"}
    ]},
    {"smiles": "N#Cc1ccccc1NC(=O)c1snc(Cl)c1Cl", "note": "[Isotianil]", "values": [
      {"measurement": "Observed Efficacy (%)", "setting": "[1]; 100 ppm", "result": 0, "unit": "%"},
      {"measurement": "Observed Efficacy (%)", "setting": "[1]; 200 ppm", "result": 0, "unit": "%"},
      {"measurement": "Observed Efficacy (%)", "setting": "[6]; 10.0 ppm", "result": 31, "unit": "%"},
      {"measurement": "Observed Efficacy (%)", "setting": "[6]; 50.0 ppm", "result": 41, "unit": "%"},
      {"measurement": "Observed Efficacy (%)", "setting": "[4]; 100 ppm", "result": 0, "unit": "%"},
      {"measurement": "Observed Efficacy (%)", "setting": "[4]; 200 ppm", "result": 25, "unit": "%"},
      {"measurement": "Observed Efficacy (%)", "setting": "[5]; Conc. 10 ppm", "result": 51, "unit": "%"},
      {"measurement": "Observed Efficacy (%)", "setting": "[5]; Conc. 50 ppm", "result": 57, "unit": "%"}
    ]},
    {"smiles": "C=CCOC1=NS(=O)(=O)c2ccccc21", "note": "[Probenazole]", "values": [
      {"measurement": "pest or weed control at 100 ppm", "setting": "[1]; [8]", "result": 12.5, "unit": "%"},
      {"measurement": "pest or weed control at 200 ppm", "setting": "[1]; [9]", "result": 0, "unit": "%"},
      {"measurement": "Observed Efficacy (%)", "setting": "[6]; 2.0 ppm", "result": 22, "unit": "%"},
      {"measurement": "Observed Efficacy (%)", "setting": "[6]; 10.0 ppm", "result": 28, "unit": "%"},
      {"measurement": "pest or weed control at 100 ppm", "setting": "[4]; [10]", "result": 0, "unit": "%"},
      {"measurement": "Observed Efficacy (%)", "setting": "[5]; Conc. 2 ppm", "result": "15% and 16%"},
      {"measurement": "Observed Efficacy (%)", "setting": "[5]; Conc. 10 ppm", "result": 22, "unit": "%"}
    ]},
    {"smiles": "COC(=O)N(OC)c1ccccc1COc1ccn(-c2ccc(Cl)cc2)n1", "note": "[Pyraclostrobin]", "values": [
      {"measurement": "pest or weed control at 100 ppm", "setting": "[1]; [8]", "result": 12.5, "unit": "%"},
      {"measurement": "pest or weed control at 200 ppm", "setting": "[1]; [9]", "result": 12.5, "unit": "%"},
      {"measurement": "pest or weed control at 500 ppm", "setting": "[1]; Spodoptera litura, 500 ppm, read-out: Observed Efficacy (%)", "result": 12.5, "unit": "%"},
      {"measurement": "Observed Efficacy (%)", "setting": "[2]; 0.05 ppm", "result": 26, "unit": "%"},
      {"measurement": "Observed Efficacy (%)", "setting": "[2]; 0.1 ppm", "result": 26, "unit": "%"},
      {"measurement": "Observed Efficacy (%)", "setting": "[6]; 0.05 ppm", "result": 39, "unit": "%"},
      {"measurement": "pest or weed control at 100 ppm", "setting": "[4]; [10]", "result": 0, "unit": "%"},
      {"measurement": "Observed Efficacy (%)", "setting": "[5]; Conc. 0.05 ppm", "result": 29, "unit": "%"}
    ]}
  ]
}
